Assay results taken from patent US20170360726A1, “COMPOUNDS, COMPOSITIONS AND METHODS OF USE” (Aquinnah Pharmaceuticals, Inc., priority 2014, published 2017).
Where two headings read alike, the source gives them in different places.

Experiments:
[1] = test system: TDP-43 inclusions in PC12 cells stably expressing wild type (WT) TDP-43-GFP; assay: Dose response assay for TDP-43 inclusion inhibition; type: cell-based; details: Rattus norvegicus, PC-12
Description: Example 3. Dose Response Assay for TDP-43 Inhibition
Exemplary compounds of the invention were evaluated for efficacy in inhibiting TDP-43 inclusions using a dose response assay. Briefly, PC12 cells stably expressing wild type (WT) TDP-43-GFP were stressed with 15 μM to induce TDP-43 inclusions. The cells were then treated with exemplary compounds of the invention and the inhibitory effect on TDP-43 inclusions was observed using fluorescent microscopy. The ratio of cells with TDP-43 inclusions was calculated based on the total number of cells with detectable GFP expression. A 12-point dose response curve was generated, and the IC50 for each compound tested was determined.

[2] = test system: Embryonic mouse hippocampal neurons transduced with TDP-43 EGFP; assay: Neuroprotection assay (dendrite length rescue); type: cell-based; details: average rescue total dendrite length; compound at 10 times the IC50, treated DIV7, 9, 11, fixed DIV12
Description: Example 4. Neuroprotection Assay
1× Hank's balanced salt solution (Ca—/Mg, 500 mL) and 10 mM HEPES, pH 7.25-7.3 (IM stock, 5 mL)
MEM (Earle salts+/Glutamine, 95 mL), FBS (to 2.5%, 2.5 mL), Pen/Strep (1×, 1 mL), glutamine (1×, 1 mL), and D-glucose (0.6% w/v, 0.6 g)
neurobasal media (96 mL), B27 supplement (2 mL), Pen/Strep (1 mL), and glutamine (1 mL).
Embryonic mouse hippocampal neurons were cultured according to Kaech, S. and Banker, G. (2006) Nat Protoc 1:2406-2415 and dissected at […] from CD1 mice. Once all the hippocampi were removed, they were placed in a 15 mL conical Falcon tube on ice and brought to a final volume of 4.5 mL with CMF dissection buffer. 0.5 mL of a 2.5% trypsin-EDTA solution was then added, and the mixture was incubated at 37° C. for 15 min. […] Neurons were traced and analyzed using NeuronJ.
Results of the neuroprotection assay for exemplary compounds of the invention are summarized in Table 1, wherein A represents an average rescue total dendrite length of >150%; B represents an average rescue total dendrite length of 100-149%; C represents an average rescue total dendrite length of 50-99%; D represents an average rescue total dendrite length of 0-49%; E represents an average rescue total dendrite length of <0%; and ND signifies that the average rescue total dendrite length was not determined.

[3] = inhibition of TDP-43 inclusions, PC12 cells expressing WT TDP-43-GFP, 12-point dose response, fluorescent microscopy, read-out: IC50

Row | SMILES | IC50 [1, 3] | Average Additive Dendrite Length (%) [2] | IC50 [1]
1 | CCc1cccc(C)c1NS(=O)(=O)c1cnccc1C(=O)N1CCCC1 [Compound 101, N-(2-ethyl-6-methylphenyl)-4-(pyrrolidine-1-carbonyl)pyridine-3-sulfonamide] | < 100 nM | C (C represents an average rescue total dendrite length of 50-99%) | 
2 | CCc1cccc(C)c1NS(=O)(=O)c1cccnc1 [Compound 102, N-(2-ethyl-6-methylphenyl)pyridine-3-sulfonamide] |  |  | 101 to 250 nM
3 | CCc1cccc(C)c1NS(=O)(=O)c1ccccc1C(=O)N1CCCC1 [Compound 100, N-(2-ethyl-6-methylphenyl)-2-(pyrrolidine-1-carbonyl)-benzenesulfonamide] | > 500 nM | C (C represents an average rescue total dendrite length of 50-99%) | 
